Key:
[1] = cited from earlier work
Fusarium oxysporum = conditions: 0.35 mg EDTA per mL, Mueller-Hinton, in vitro
Protocol: (§1) These figures are discussed elsewhere in the Detailed Description section. A spectrophotometer was used at a frequency of 660 nm to measure the absorbency of the solution.
(§2) For molds, all inocula were started at 1×10^4 conidia/mL. For yeast and bacteria, all inocula were started at 1×10^6 cfu/mL. The medium used was Mueller-Hinton.
(§3) The concentration of chelator in these studies was 0.35 mg EDTA per mL water.

Candida krusei = conditions: 0.35 mg EDTA per mL, in vitro
Protocol: as §1, §2, §3

Aspergillus terreus = conditions: 0.35 mg EDTA per mL, Mueller-Hinton, in vitro
Protocol: as §1, §2, §3

Aspergillus flavus = conditions: 0.35 mg EDTA per mL, in vitro
Protocol: as §1, §2, §3

In the case of `C[C@@H]1[C@H](O)[C@@H](C)/C=C/C=C/C=C/C=C/C=C/C=C/C=C/[C@H](O[C@@H]2O[C@H](C)[C@@H](O)[C@H](N)[C@@H]2O)C[C@@H]2O[C@](O)(C[C@@H](O)C[C@@H](O)[C@H](O)CC[C@@H](O)C[C@@H](O)CC(=O)O[C@H]1C)C[C@H](O)[C@H]2C(=O)O` [Amphotericin B], the “solubility in aqueous solution” value [1] is given as “not soluble”.

For `O=C(O)CN(CCN(CC(=O)O)CC(=O)O)CC(=O)O` [EDTA, Ethylenediamine-N,N,N′,N′,-tetraacetic acid], the “inhibitory effect on growth” value (Fusarium oxysporum) was “inhibitory effect”, the “inhibitory effect on growth” value (Candida krusei; Mueller-Hinton) was “inhibitory effect” and the “time after contact at which the inhibitory effect is noticeable” value (Candida krusei) was “only a few hours”. The “inhibitory effect on growth” value (Aspergillus terreus) was “inhibitory effect”, the “inhibitory effect on growth relative to the control population” value (Aspergillus flavus; Mueller-Hinton) was “inhibitory effect” and the “time after application from which the inhibitory effect is most clearly noticeable” value (Aspergillus flavus) was 12 h.

Source: patent US6509319B1, “EDTA and other chelators with or without antifungal antimicrobial agents for the prevention and treatment of fungal infections” (Board of Regents, The University of Texas System, priority 1997, dated 2003)
